Test [1] relates to Osteoblast. Put plainly: Induction of osteoblast differentiation in transgenic osx mCherry Zebrafish embryo assessed as increase in Col1a2 mRNA expression in fin at 0.1 % measured after 15 days by semiquantitative PCR analysis. Format: functional, tissue-based. The settings on record: Danio rerio, time 15.0 day.
Test [2] is filed under the species Danio rerio. The test can be described thus: Anti-osteoporosis activity in FAC-induced skeletal injury Zebrafish assessed as increase in cumulative bone optical density in caudal fins at 0.1 % measured for 10 day post fertilization. Format: functional, organism-based.
The species entered for test [3] is Danio rerio. The test can be described thus: Anti-osteoporosis activity in FAC-induced skeletal injury Zebrafish assessed as increase in cumulative bone optical density in spine at 0.1 % measured for 10 day post fertilization. Format: functional, organism-based.
For test [4], the system named is Osteoblast. Put plainly: Induction of osteoblast differentiation in transgenic osx mCherry Zebrafish embryo assessed as increase in Sox9a mRNA expression in fin at 0.1 % measured after 15 days by semiquantitative PCR analysis. Format: functional, tissue-based. Conditions: Danio rerio, time 15.0 day.
Test [5] has as its system Osteoblast. Put plainly: Induction of osteoblast differentiation in transgenic osx mCherry Zebrafish embryo assessed as increase in Col10a1a mRNA expression in fin at 0.1 % measured after 15 days by semiquantitative PCR analysis. Format: functional. Conditions: Danio rerio, time 15.0 day.
Test [6] deals with Osteoblast. The test can be described thus: Induction of osteoblast differentiation in transgenic osx mCherry Zebrafish embryo assessed as increase in Sox9b mRNA expression in fin at 0.1 % measured after 15 days by semiquantitative PCR analysis. Format: functional, tissue-based. The settings on record: Danio rerio, time 15.0 day.
For test [7], the species on record is Danio rerio. Put plainly: Suppression of Bmp signaling in Zebrafish tBr injected mRNA embryos assessed as reduction in slight loss of tail tissue at 2.5 uM measured at 26 hrs post fertilization. Format: functional, Embryo. Details: scale not given: the % may be the effect or the level left.
The species named for test [8] is Danio rerio. Put plainly: Suppression of Bmp signaling in Zebrafish tBr injected mRNA embryos assessed as reduction in indistinctive tail tissue at 2.5 uM measured at 26 hrs post fertilization. Format: functional, Embryo. More on the design: scale not given: the % may be the effect or the level left.

The source of these data is ChEMBL document CHEMBL5149973, “Agaricus bisporus-Derived Glucosamine Hydrochloride Facilitates Skeletal Injury Repair through Bmp Signaling in Zebrafish Osteoporosis Model” (J Nat Prod, 2021).

The source made the active and inactive calls. The calls are words filed in the database; no cut-off is given here.

In the case of `NCCCC(O)(P(=O)(O)O)P(=O)(O)O`, the outcome with Osteoblast [1], in the test filed under Danio rerio [2], in the test filed under Danio rerio [3], in the test with Osteoblast [4], with Osteoblast [5] and in the test with Osteoblast [6] was Active.

In the case of `c1cc(-c2cnn3cc(-c4ccc(OCCN5CCCCC5)cc4)cnc23)ccn1` [DORSOMORPHIN], the Activity in the test filed under Danio rerio [7] and in the test listed under Danio rerio [8] was 80% in each case.
